Laboratory results as given in patent US20230071840A1, “HETEROCYCLIC GLP-1 AGONISTS” (Gasherbrum Bio, Inc., priority 2020, published 2023).

The compounds below were run against GLP-1 Receptor (Homo sapiens, UniProt P43220) (assay: GLP-1R agonist cAMP stimulation assay (HEK293/GLP1R/CRE-LUC cells, cAMP dynamic 2 kit)). Settings: GLP1R cAMP Stimulation DR: EC50 (nM).
Sequence of GLP-1 Receptor (P43220 24-463, species assumed): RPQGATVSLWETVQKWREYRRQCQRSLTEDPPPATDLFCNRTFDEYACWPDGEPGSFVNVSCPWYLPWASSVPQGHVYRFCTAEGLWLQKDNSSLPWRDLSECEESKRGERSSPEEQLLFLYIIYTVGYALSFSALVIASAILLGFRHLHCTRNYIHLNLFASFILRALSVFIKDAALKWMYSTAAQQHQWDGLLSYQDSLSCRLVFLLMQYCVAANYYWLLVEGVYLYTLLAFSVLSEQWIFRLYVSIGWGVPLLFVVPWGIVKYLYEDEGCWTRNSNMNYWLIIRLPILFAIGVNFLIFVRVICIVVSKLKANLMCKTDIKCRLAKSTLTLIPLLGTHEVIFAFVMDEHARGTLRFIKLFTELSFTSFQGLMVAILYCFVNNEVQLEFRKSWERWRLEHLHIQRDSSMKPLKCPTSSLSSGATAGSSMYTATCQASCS
Type: cell-based
Experimental: Activation of GLP-1 receptor is known to stimulate cyclic AMP (cAMP) production in cells which indicates primary coupling to the Gas subunit of the G protein heterotrimeric complex.
To optimize functional activity directed toward Gas coupling, a HEK293/CRE-Luc cell line developed by HDB stably expressing the GLP-1 Receptor was used. […] Seal the plate and incubate at 37° C. with 5% CO2 for 30 min.
After incubation the cAMP assay signal was generated using cAMP dynamic 2 Kit (Cisbio). 5 μL cAMP-d2 working solution was added to each well, followed with 5 μL Anti-cAMP antibody-cryptate working solution added to each well using ThermoFisher Multidrop Combi. Incubate at room temperature for 1 hour protected from light.
% Activity=[…]×(mean RLU of test sample−mean RLU of vehicle control)/(mean RLU of MAX control−mean RLU of vehicle control))
`CC(c1cccc(OC2CCN(Cc3nc4ccc(C(=O)O)nc4n3C[C@@H]3CCO3)CC2)n1)c1ccc(Cl)cc1F` (stereo partly drawn) [Compound 128a, 2-{[4-({6-[1-(4-chloro-2-fluorophenyl)ethyl]pyridin-2-yl}oxy)piperidin-1-yl]methyl}-3-{[(2S)-oxetan-2-yl]methyl}-3H-imidazo[4,5-b]pyridine-5-carboxylic acid] was tested, and the EC50 was 1.2 nM.

Same assay, conditions: HEK293/CRE-Luc cell line stably expressing the GLP-1 Receptor; 30 min incubation at 37° C.; read-out: GLP1R cAMP Stimulation DR: EC50
`O=C(O)c1ccc2nc(CN3CCC(Oc4ccnc(Cc5ccc(Cl)cc5F)n4)CC3)n(C[C@@H]3CCO3)c2n1` [Compound 113a, 2-{[4-({2-[(4-chloro-2-fluorophenyl)methyl]pyrimidin-4-yl}oxy)piperidin-1-yl]methyl}-3-{[(2S)-oxetan-2-yl]methyl}-3H-imidazo[4,5-b]pyridine-5-carboxylic acid] was tested, and the EC50 was 0.038 nM. `Cc1cc(Cc2ccc(Cl)cc2)nc(OC2CCN(Cc3nc4ccc(C(=O)O)nc4n3C[C@@H]3CCO3)CC2)c1` [Compound 154a, 2-{[4-({6-[(4-chlorophenyl)methyl]-4-methylpyridin-2-yl}oxy)piperidin-1-yl]methyl}-3-{[(2S)-oxetan-2-yl]methyl}-3H-imidazo[4,5-b]pyridine-5-carboxylic acid] showed an EC50 of 24 nM. Work on `O=C(O)c1ccc2nc(C[C@H]3CC[C@H](Oc4ccnc(Cc5ccc(Cl)cc5)n4)CC3)n(C[C@@H]3CCO3)c2c1` [Compound 176a, 1-{[(2S)-oxetan-2-yl]methyl)-2-{[trans-4-({2-[(4-chlorophenyl)methyl]pyrimidin-4-yl}oxy)cyclohexyl]methyl}-1H-1,3-benzodiazole-6-carboxylic acid] yielded an EC50 of 0.37 nM. For `O=C(O)c1ccc2nc(CN3CCC(Oc4cnn(Cc5ccc(Cl)cc5F)c4)CC3)n(C[C@@H]3CCO3)c2n1` [Compound 184a, 2-{[4-({1-[(4-chloro-2-fluorophenyl)methyl]-1H-pyrazol-4-yl}oxy)piperidin-1-yl]methyl}-3-{[(2S)-oxetan-2-yl]methyl}-3H-imidazo[4,5-b]pyridine-5-carboxylic acid], the EC50 was 90 nM. For `O=C(O)c1ccc2nc(CN3CCC(Oc4ccnc(Cc5ccc(Cl)cc5)n4)CC3)n(C[C@@H]3CCO3)c2n1` [Compound 152a, 2-{[4-({2-[(4-chlorophenyl)methyl]pyrimidin-4-yl}oxy)piperidin-1-yl]methyl}-3-{[(2S)-oxetan-2-yl]methyl}-3H-imidazo[4,5-b]pyridine-5-carboxylic acid], the EC50 was 0.038 nM. With `Clc1ccc(Cc2nccc(OC3CCN(Cc4nc5ccc(-c6nnn[nH]6)nc5n4C[C@@H]4CCO4)CC3)n2)cc1` [Compound 199a, (S)-2-((4-((2-(4-chlorobenzyl)pyrimidin-4-yl)oxy)piperidin-1-yl)methyl)-3-(oxetan-2-ylmethyl)-5-(1H-tetrazol-5-yl)-3H-imidazo[4,5-b]pyridine] the EC50 was 0.95 nM. In the case of `O=C(O)c1ccc2nc(CN3CCC(Oc4ccnc(Cc5ccc(C(F)(F)F)cc5F)n4)CC3)n(C[C@@H]3CCO3)c2n1` [Compound 163a, 2-({4-[(2-{[2-fluoro-4-(trifluoromethyl)phenyl]methyl}pyrimidin-4-yl)oxy]piperidin-1-yl}methyl)-3-{[(2S)-oxetan-2-yl]methyl}-3H-imidazo[4,5-b]pyridine-5-carboxylic acid], the EC50 is reported as 0.11 nM. `O=C(O)c1ccc2nc(Cc3ccc(Oc4nc(Cc5ccc(Cl)cc5)ncc4F)cc3F)n(C[C@@H]3CCO3)c2c1` [Compound 191a, 2-{[4-({2-[(4-chlorophenyl)methyl]-5-fluoropyrimidin-4-yl}oxy)-2-fluorophenyl]methyl}-1-{[(2S)-oxetan-2-yl]methyl}-1H-1,3-benzodiazole-6-carboxylic acid] was tested, and the EC50 was 0.29 nM. `O=C(O)c1ccc2nc(CN3CCC(Oc4cccc(Cn5ccc(Cl)cc5=O)n4)CC3)n(C[C@@H]3CCO3)c2n1` [Compound 149a, 2-{[4-({6-[(4-chloro-2-oxo-1,2-dihydropyridin-1-yl)methyl]pyridin-2-yl}oxy)piperidin-1-yl]methyl}-3-{[(2S)-oxetan-2-yl]methyl}-3H-imidazo[4,5-b]pyridine-5-carboxylic acid] gave an EC50 of 5.6 nM. Work on `O=C(O)c1ccc2nc(C[C@H]3CC[C@H](Oc4cccc(Cc5ccc(Cl)cc5F)n4)CC3)n(C[C@@H]3CCO3)c2n1` [Compound 174b, 3-{[(2S)-oxetan-2-yl]methyl}-2-{[trans-4-({6-[(4-chloro-2-fluorophenyl)methyl]pyridin-2-yl}oxy)cyclohexyl]methyl}-3H-imidazo[4,5-b]pyridine-5-carboxylic acid] yielded an EC50 of 0.14 nM. In the case of `O=C(O)c1ccc2nc(CC3CCN(C(=O)c4cccc(Cc5ccc(Cl)cc5F)n4)CC3)n(C[C@@H]3CCO3)c2n1` [Compound 106a, (S)-2-((1-(6-(4-Chloro-2-fluorobenzyl)picolinoyl)piperidin-4-yl)methyl)-3-(oxetan-2-ylmethyl)-3H-imidazo[4,5-b]pyridine-5-carboxylic acid], the EC50 is reported as 463 nM. Compound `O=C(O)c1ccc2nc(C[C@H]3CC[C@@H](Oc4ccnc(Cc5ccc(Cl)cc5F)n4)CC3)n(C[C@@H]3CCO3)c2n1` [Compound 175a, 3-{[(2S)-oxetan-2-yl]methyl}-2-{[cis-4-({2-[(4-chloro-2-fluorophenyl)methyl]pyrimidin-4-yl}oxy)cyclohexyl]methyl}-3H-imidazo[4,5-b]pyridine-5-carboxylic acid] has an EC50 of 230 nM. With `O=C(O)c1ccc2nc(CN3CCC(Oc4cncc(Cc5ccc(Cl)cc5)n4)CC3)n(C[C@@H]3CCO3)c2n1` [Compound 153a, 2-{[4-({6-[(4-chlorophenyl)methyl]pyrazin-2-yl}oxy)piperidin-1-yl]methyl}-3-{[(2S)-oxetan-2-yl]methyl}-3H-imidazo[4,5-b]pyridine-5-carboxylic acid] the EC50 was 0.14 nM. Compound `O=C(O)c1ccc2nc(CN3CCC(Oc4cccc(Cc5ccc(Cl)cc5)c4Cl)CC3)n(C[C@@H]3CCO3)c2n1` [Compound 158a, 2-[(4-{2-chloro-3-[(4-chlorophenyl)methyl]phenoxy}piperidin-1-yl)methyl]-3-{[(2S)-oxetan-2-yl]methyl}-3H-imidazo[4,5-b]pyridine-5-carboxylic acid] has an EC50 of over 1000 nM. In the case of `O=C(O)c1ccc2nc(Cc3ccc(Oc4ccnc(Cc5ccc(Cl)cc5)n4)cc3)n(C[C@@H]3CCO3)c2c1` [Compound 187a, 2-{[4-({2-[(4-chlorophenyl)methyl]pyrimidin-4-yl}oxy)phenyl]methyl}-1-{[(2S)-oxetan-2-yl]methyl}-1H-1,3-benzodiazole-6-carboxylic acid], the EC50 is reported as 1.3 nM. For `O=C(O)c1ccc2nc(CN3CCC(Oc4cccc(Cc5ccc(Cl)cc5)n4)CC3)n(C[C@@H]3CCO3)c2n1` [Compound 124a, (S)-2-((4-((6-(4-chlorobenzyl)pyridin-2-yl)oxy)piperidin-1-yl)methyl)-3-(oxetan-2-ylmethyl)-3H-imidazo[4,5-b]pyridine-5-carboxylic acid], the EC50 was 0.043 nM. `N#Cc1ccc(Cc2nccc(O[C@H]3CC[C@H](Cc4nc5ccc(C(=O)O)nc5n4C[C@@H]4CCO4)CC3)n2)cc1` [Compound 182a, 3-{[(2S)-oxetan-2-yl]methyl}-2-{[trans-4-({2-[(4-cyanophenyl)methyl]pyrimidin-4-yl}oxy)cyclohexyl]methyl}-3H-imidazo[4,5-b]pyridine-5-carboxylic acid] showed an EC50 of 0.07 nM. In the case of `N#CC1(Cn2c(C[C@H]3CC[C@H](Oc4ccnc(Cc5ccc(Cl)cc5)n4)CC3)nc3ccc(C(=O)O)nc32)CC1` [Compound 178a, 3-[(1-cyanocyclopropyl)methyl]-2-{[trans-4-({2-[(4-chlorophenyl)methyl]pyrimidin-4-yl}oxy)cyclohexyl]methyl}-3H-imidazo[4,5-b]pyridine-5-carboxylic acid], the EC50 is reported as 0.1 nM. `O=C(O)c1ccc2nc(CN3CCC(Oc4cccc(Cc5ccc(Cl)cc5)c4F)CC3)n(C[C@@H]3CCO3)c2n1` [Compound 157a, 2-[(4-{3-[(4-chlorophenyl)methyl]-2-fluorophenoxy}piperidin-1-yl)methyl]-3-{[(2S)-oxetan-2-yl]methyl}-3H-imidazo[4,5-b]pyridine-5-carboxylic acid] showed an EC50 of 42 nM. For `O=C(O)c1ccc2nc(CN3CCC(Oc4ccnc(Cc5ccc(Cl)c(Cl)c5)n4)CC3)n(C[C@@H]3CCO3)c2n1` [Compound 167a, 2-{[4-({2-[(3,4-dichlorophenyl)methyl]pyrimidin-4-yl}oxy)piperidin-1-yl]methyl}-3-{[(2S)-oxetan-2-yl]methyl}-3H-imidazo[4,5-b]pyridine-5-carboxylic acid], the EC50 was 0.13 nM. With `O=C(O)c1ccc2nc(CN3CCC(n4ccc5ccc(Cc6ccc(Cl)cc6F)nc54)CC3)n(C[C@@H]3CCO3)c2n1` [Compound 140a, 2-[(4-{6-[(4-chloro-2-fluorophenyl)methyl]-1H-pyrrolo[2,3-b]pyridin-1-yl}piperidin-1-yl)methyl]-3-{[(2S)-oxetan-2-yl]methyl}-3H-imidazo[4,5-b]pyridine-5-carboxylic acid] the EC50 was 1.2 nM. `O=C(O)c1ccc2nc(CN3CC=C(c4cnc5ccc(Cc6ccc(Cl)cc6F)nn45)CC3)n(C[C@@H]3CCO3)c2n1` [Compound 192a, 2-[(4-{6-[(4-chloro-2-fluorophenyl)methyl]imidazo[1,2-b]pyridazin-3-yl}-1,2,3,6-tetrahydropyridin-1-yl)methyl]-3-{[(2S)-oxetan-2-yl]methyl}-3H-imidazo[4,5-b]pyridine-5-carboxylic acid] showed an EC50 of 130 nM.

Same assay, conditions: HEK293/CRE-Luc cell line stably expressing the GLP-1 Receptor; 30 min incubation at 37° C.; read-out: GLP1R cAMP Stimulation DR: pEC50 (converted)
Compound `O=C(O)c1ccc2nc(CN3CCC(Oc4cnn(Cc5ccc(Cl)cc5F)c4)CC3)n(C[C@@H]3CCO3)c2n1` [Compound 184a, 2-{[4-({1-[(4-chloro-2-fluorophenyl)methyl]-1H-pyrazol-4-yl}oxy)piperidin-1-yl]methyl}-3-{[(2S)-oxetan-2-yl]methyl}-3H-imidazo[4,5-b]pyridine-5-carboxylic acid] has an EC50 of 100 nM. `Clc1ccc(Cc2nccc(OC3CCN(Cc4nc5ccc(-c6nnn[nH]6)nc5n4C[C@@H]4CCO4)CC3)n2)cc1` [Compound 199a, (S)-2-((4-((2-(4-chlorobenzyl)pyrimidin-4-yl)oxy)piperidin-1-yl)methyl)-3-(oxetan-2-ylmethyl)-5-(1H-tetrazol-5-yl)-3H-imidazo[4,5-b]pyridine] gave an EC50 of 1 nM. With `O=C(O)c1ccc2nc(CN3CCC(Oc4ccnc(Cc5ccc(C(F)(F)F)cc5F)n4)CC3)n(C[C@@H]3CCO3)c2n1` [Compound 163a, 2-({4-[(2-{[2-fluoro-4-(trifluoromethyl)phenyl]methyl}pyrimidin-4-yl)oxy]piperidin-1-yl}methyl)-3-{[(2S)-oxetan-2-yl]methyl}-3H-imidazo[4,5-b]pyridine-5-carboxylic acid] the EC50 was 0.1 nM. Compound `O=C(O)c1ccc2nc(CN3CCC(Oc4cncc(Cc5ccc(Cl)cc5)n4)CC3)n(C[C@@H]3CCO3)c2n1` [Compound 153a, 2-{[4-({6-[(4-chlorophenyl)methyl]pyrazin-2-yl}oxy)piperidin-1-yl]methyl}-3-{[(2S)-oxetan-2-yl]methyl}-3H-imidazo[4,5-b]pyridine-5-carboxylic acid] has an EC50 of 0.158 nM.
